Assay results reported in patent US8394834B2, “Pyrrolidines as NK3 receptor antagonists” (Hoffman-La Roche Inc., priority 2009, dated 2013).

Target: T1, recombinant human NK3 receptor (Homo sapiens, UniProt P29371)
T1 construct: expressed in transfected cells; host or cells: HEK293 cells (transient expression), membranes
T1 sequence (P29371 1-465): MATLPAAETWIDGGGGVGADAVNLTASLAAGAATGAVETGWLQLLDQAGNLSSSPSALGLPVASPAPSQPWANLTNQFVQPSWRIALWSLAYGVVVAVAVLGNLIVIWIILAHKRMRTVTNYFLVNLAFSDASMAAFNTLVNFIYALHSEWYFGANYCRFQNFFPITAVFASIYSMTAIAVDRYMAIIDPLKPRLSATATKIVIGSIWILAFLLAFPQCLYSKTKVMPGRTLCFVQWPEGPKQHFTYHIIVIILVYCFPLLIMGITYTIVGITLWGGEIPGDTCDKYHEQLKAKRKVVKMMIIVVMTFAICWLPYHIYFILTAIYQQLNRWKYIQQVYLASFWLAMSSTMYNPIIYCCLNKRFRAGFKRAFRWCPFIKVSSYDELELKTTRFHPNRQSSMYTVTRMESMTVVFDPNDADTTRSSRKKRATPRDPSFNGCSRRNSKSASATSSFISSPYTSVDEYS
Assay: [3H]SR142801 competition binding assay
Details: hNK3 receptor, membranes from HEK293 cells transiently expressing the receptor, [3H]SR142801 radioligand
Procedure: [^3H]SR142801 Competition Binding Assay
hNK3 receptor binding experiment were performed using [^3H]SR142801 (Catalog No. TRK1035, specific activity: 74.0 Ci/mmol, Amersham, GE Healthcare UK limited, Buckinghamshire, UK) and membrane isolated from HEK293 cells transiently expressing recombinant human NK3 receptor. After thawing, the membrane homogenates were centrifuged at 48,000×g for 10 min at 4° C., the pellets were resuspended in the 50 mM Tris-HCl, 4 mM MnCl2, 1 μM phosphoramidon, 0.1% BSA binding buffer at pH 7.4 to a final assay concentration of 5 μg protein/well. For inhibition experiments, membranes were incubated with [^3H]SR142801 at a concentration equal to KD value of radioligand and 10 concentrations of the inhibitory compound (0.0003-10 μM) (in a total reaction volume of 500 μl) for 75 min at room temperature (RT). At the end of the incubation, membranes were filtered onto unitfilter (96-well white microplate with bonded GF/C filter preincubated 1 h in 0.3% PEI+0.3% BSA, Packard BioScience, Meriden, Conn.) with a Filtermate 196 harvester (Packard BioScience) and washed 4 times with ice-cold 50 mM Tris-HCl, pH 7.4 buffer. Nonspecific binding was measured in the presence of 10 μM SB222200 for both radioligands. The radioactivity on the filter was counted (5 min) on a Packard Top-count microplate scintillation counter with quenching correction after addition of 45 μl of microscint 40 (Can berra Packard S. A., Zürich, Switzerland) and shaking for 1 h. Inhibition curves were fitted according to the Hill equation: […]), where nH=slope factor using Excel-fit 4 software (Microsoft). IC50 values were derived from the inhibition curve and the affinity constant (Ki) values were calculated using the Cheng-Prussoff equation Ki=IC50/(1+[L]/KD) where [L] is the concentration of radioligand and KD is its dissociation constant at the receptor, derived from the saturation isotherm. All experiments were performed in duplicate and the mean±standard error (SEM) of the individual Ki values was calculated.

C[C@H](Oc1ccc(F)cn1)[C@H]1CN(C(=O)C2CCN(c3ccc(C#N)nn3)CC2)C[C@@H]1c1ccc(Cl)cc1 [Example 16, 6-(4-{(3S,4R)-3-(4-Chloro-phenyl)-4-[1-((S)-5-fluoro-pyridin-2-yloxy)-ethyl]-pyrrolidine-1-carbonyl}-piperidin-1-yl)-pyridazine-3-carbonitrile]
Ki: 0.8 nM

Cc1nnc(N2CCC(C(=O)N3C[C@H]([C@H](C)Oc4ccc(Cl)cn4)[C@@H](c4ccc(Cl)cc4)C3)CC2)o1 [Example 18, {(3S,4R)-3-(4-Chloro-phenyl)-4-[1-((S)-5-chloro-pyridin-2-yloxy)-ethyl]-pyrrolidin-1-yl}-[1-(5-methyl-[1,3,4]oxadiazol-2-yl)-piperidin-4-yl]-methanone]
Ki: 3.1 nM

C[C@H](Oc1ccc(Cl)cn1)[C@H]1CN(C(=O)C2CCN(c3ccc(C#N)nn3)CC2)C[C@@H]1c1ccc(Cl)cc1 [Example 6, 6-(4-{(3S,4R)-3-(4-Chloro-phenyl)-4-[1-((S)-5-chloro-pyridin-2-yloxy)-ethyl]-pyrrolidine-1-carbonyl}-piperidin-1-yl)-pyridazine-3-carbonitrile]
Ki: 0.5 nM

Cc1ccc(N2CCC(C(=O)N3C[C@H]([C@H](C)Oc4ccc(F)cn4)[C@@H](c4ccc(Cl)cc4)C3)CC2)nn1 [Example 12, {(3S,4R)-3-(4-Chloro-phenyl)-4-[1-((S)-5-fluoro-pyridin-2-yloxy)-ethyl]-pyrrolidin-1-yl}-[1-(6-methyl-pyridazin-3-yl)-piperidin-4-yl]-methanone]
Ki: 2.1 nM

COc1ccc(N2CCC(C(=O)N3C[C@H]([C@H](C)Oc4ccc(Cl)cn4)[C@@H](c4ccc(Cl)cc4)C3)CC2)nc1 [Example 13, {(3S,4R)-3-(4-Chloro-phenyl)-4-[1-((S)-5-chloro-pyridin-2-yloxy)-ethyl]-pyrrolidin-1-yl}-(5′-methoxy-3,4,5,6-tetrahydro-2H-[1,2′]bipyridinyl-4-yl)-methanone]
Ki: 0.7 nM

C[C@H](Oc1ccc(Cl)cn1)[C@H]1CN(C(=O)C2CCN(c3cccc(C#N)n3)CC2)C[C@@H]1c1ccc(Cl)cc1 [Example 17, 4-{(3S,4R)-3-(4-Chloro-phenyl)-4-[1-((S)-5-chloro-pyridin-2-yloxy)-ethyl]-pyrrolidine-1-carbonyl}-3,4,5,6-tetrahydro-2H-[1,2′]bipyridinyl-6′-carbonitrile]
Ki: 1.5 nM

C[C@H](Oc1ccc(Cl)cn1)[C@H]1CN(C(=O)C2CCN(c3ccncn3)CC2)C[C@@H]1c1ccc(Cl)cc1 [Example 8, {(3S,4R)-3-(4-Chloro-phenyl)-4-[1-((S)-5-chloro-pyridin-2-yloxy)-ethyl]pyrrolidin-1-yl}-(1-pyrimidin-4-yl-piperidin-4-yl)-methanone]
Ki: 1.3 nM

C[C@H](Oc1ccc(Cl)cn1)[C@H]1CN(C(=O)C2CCN(c3ccc(C#N)cn3)CC2)C[C@@H]1c1ccc(Cl)cc1 [Example 1, 4-{(3S,4R)-3-(4-Chloro-phenyl)-4-[1-((S)-5-chloro-pyridin-2-yloxy)-ethyl]-pyrrolidine-1-carbonyl}-3,4,5,6-tetrahydro-2H-[1,2′]bipyridinyl-5′-carbonitrile]
Ki: 0.4 nM

C[C@H](Oc1ccc(Cl)cn1)[C@H]1CN(C(=O)C2CCN(c3cc(C#N)ccn3)CC2)C[C@@H]1c1ccc(Cl)cc1 [Example 11, 4-{(3S,4R)-3-(4-Chloro-phenyl)-4-[1-((S)-5-chloro-pyridin-2-yloxy)-ethyl]-pyrrolidine-1-carbonyl}-3,4,5,6-tetrahydro-2H-[1,2′]bipyridinyl-4′-carbonitrile]
Ki: 0.5 nM

CC(=O)c1ccc(N2CCC(C(=O)N3C[C@H]([C@H](C)Oc4ccc(Cl)cn4)[C@@H](c4ccc(Cl)cc4)C3)CC2)cc1 [Example 5, 1-[4-(4-{(3S,4R)-3-(4-Chloro-phenyl)-4-[1-((S)-5-chloro-pyridin-2-yloxy)-ethyl]-pyrrolidine-1-carbonyl}-piperidin-1-yl)-phenyl]-ethanone]
Ki: 0.4 nM
